Article PMC4078008, “Exploring metabolic engineering design principles for the photosynthetic production of lactic acid by Synechocystis sp. PCC6803” (Biotechnology for Biofuels, 2014)

Key:
PK-F of E. coli = molecular target: T1, PK-F of E. coli (Escherichia coli, UniProt P0AD61); assay: LDH-coupled PK assay in cell-free extract with and without FBP; type: biochemical; conditions: activator; 3 mM FBP, 50 mM Tris-HCl pH 7.6, 5 mM MgCl2, 100 mM KCl, 0.6 mM ADP, 5 mM PEP, 30 °C
T1 construct: gene pykF; codon-optimized gene expressed in Synechocystis sp; PCC6803 (strain SYW004); cell-free extract

[1] = molecular target: T2, L-LDH of L. lactis (LlLDH) (Lactococcus cremoris, UniProt A2RKA4); assay: NAD(P)H consumption at […] nm in cell-free extract; type: biochemical; conditions: 100 mM Tris-HCl pH 7.2, 2.5 mM MgCl2, 3 mM FBP, 300 uM NADH, 30 mM pyruvate, 30 °C
T2 construct: full-length, codon-optimized gene expressed in Synechocystis sp; PCC6803; cell-free extract
T2 sequence (A2RKA4 1-325): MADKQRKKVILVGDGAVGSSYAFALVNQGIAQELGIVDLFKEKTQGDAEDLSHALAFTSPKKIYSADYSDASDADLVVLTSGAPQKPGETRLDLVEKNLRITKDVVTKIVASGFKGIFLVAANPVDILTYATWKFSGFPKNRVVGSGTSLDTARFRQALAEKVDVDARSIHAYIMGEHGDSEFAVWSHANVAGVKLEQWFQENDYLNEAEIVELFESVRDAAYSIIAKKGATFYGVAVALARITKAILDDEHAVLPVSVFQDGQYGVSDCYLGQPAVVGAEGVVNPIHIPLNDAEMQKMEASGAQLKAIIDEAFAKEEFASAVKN

T1 sequence (P0AD61 whole entry): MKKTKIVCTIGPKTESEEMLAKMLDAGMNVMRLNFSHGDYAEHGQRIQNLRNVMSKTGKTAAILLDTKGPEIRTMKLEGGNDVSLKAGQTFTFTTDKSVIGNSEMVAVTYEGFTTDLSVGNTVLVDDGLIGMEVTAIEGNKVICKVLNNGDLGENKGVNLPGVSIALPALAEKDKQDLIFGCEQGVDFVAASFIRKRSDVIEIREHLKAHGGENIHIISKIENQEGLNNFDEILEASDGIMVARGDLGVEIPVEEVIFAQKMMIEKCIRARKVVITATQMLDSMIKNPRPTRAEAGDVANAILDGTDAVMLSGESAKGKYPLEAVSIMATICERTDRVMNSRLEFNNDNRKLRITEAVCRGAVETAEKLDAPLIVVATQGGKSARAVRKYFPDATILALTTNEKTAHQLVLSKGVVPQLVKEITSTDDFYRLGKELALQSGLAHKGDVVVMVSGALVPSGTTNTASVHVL

In the case of O=P(O)(O)OC[C@H]1OC(O)(COP(=O)(O)O)[C@@H](O)[C@@H]1O (some centres unmarked) [FBP], the “relative activity with and without FBP” value (PK-F of E. coli) is reported as “The activity assays confirmed the FBP dependency of the selected PK-F enzymes”.

NC(=O)C1=CN([C@@H]2O[C@H](COP(=O)(O)OP(=O)(O)OC[C@H]3O[C@@H](n4cnc5c(N)ncnc54)[C@H](O)[C@@H]3O)[C@@H](O)[C@H]2O)C=CC1 [NADH] was tested, and the relative activity [1] was “Both show similar activity for NADH (Figure 5C) and similar expression levels”.
